Results as given in patent US12570655B2, “Cysteine covalent modifiers of AKT1 and uses thereof” (Terremoto Biosciences, Inc., priority 2023, dated 2026).
Where two headings read alike, the source gives them in different places.

Key:
Assay type in all cases: cell-based
AKT1 E17K = target: T1, AKT1 E17K (Homo sapiens, UniProt P31749, E17K); test: Live cell AKT1 E17K target engagement by NanoBRET competitive probe displacement; settings: HEK293 cells transfected with kinase-NanoLuciferase fusion, 2 h at 37° C.
T1 construct: expressed in transfected cells; host or cells: HEK293
In short: (§1)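 Luminescence ratio 600/460 nm served as readout after HEK293 cells bearing transiently expressed kinase–NanoLuciferase fusions were exposed 2 h at 37 °C to test compound alongside an ATP-competitive fluorescent tracer near EC50. Extracellular signal was quenched by a luciferase inhibitor.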

[1] = system: LAPC4 prostate cancer cells; test: Antiproliferative effects in LAPC4 cells (CellTiter Glo); settings: LAPC4 cells (AKT1 E17K allele), read-out: LAPC4 proliferation IC50
In short: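 IC50 values reflect 72 h compound treatment of cells plated at 1,000 per well, with CellTiter Glo luminescence as the viability read-out.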

AKT1 WT = target: T2, AKT1 WT (Homo sapiens, UniProt P31749); test: Live cell AKT1 WT target engagement by NanoBRET competitive probe displacement; settings: HEK293 cells transfected with kinase-NanoLuciferase fusion, 2 h at 37° C.
T2 construct: expressed in transfected cells; host or cells: HEK293
In short: as §1

AKT2 = target: T3, AKT2 (Homo sapiens, UniProt P31751); test: Live cell AKT2 target engagement by NanoBRET competitive probe displacement; settings: HEK293 cells transfected with kinase-NanoLuciferase fusion, 2 h at 37° C.
T3 construct: expressed in transfected cells; host or cells: HEK293
In short: as §1

T3 sequence (P31751 whole entry, the tested form may be a part): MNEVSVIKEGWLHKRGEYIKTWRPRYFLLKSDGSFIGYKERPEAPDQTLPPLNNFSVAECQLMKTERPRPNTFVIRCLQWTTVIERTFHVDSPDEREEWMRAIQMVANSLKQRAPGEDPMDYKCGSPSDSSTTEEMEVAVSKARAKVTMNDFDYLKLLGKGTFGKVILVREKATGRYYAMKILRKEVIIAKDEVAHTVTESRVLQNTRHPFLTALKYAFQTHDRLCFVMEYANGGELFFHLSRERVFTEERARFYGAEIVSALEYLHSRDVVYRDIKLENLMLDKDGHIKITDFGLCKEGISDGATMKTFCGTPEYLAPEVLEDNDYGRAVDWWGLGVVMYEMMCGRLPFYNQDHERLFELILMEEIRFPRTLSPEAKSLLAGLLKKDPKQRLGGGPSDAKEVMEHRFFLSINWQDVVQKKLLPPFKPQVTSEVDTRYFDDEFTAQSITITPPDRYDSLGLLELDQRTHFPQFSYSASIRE
T1 sequence (P31749 whole entry E17K, the tested form may be a part): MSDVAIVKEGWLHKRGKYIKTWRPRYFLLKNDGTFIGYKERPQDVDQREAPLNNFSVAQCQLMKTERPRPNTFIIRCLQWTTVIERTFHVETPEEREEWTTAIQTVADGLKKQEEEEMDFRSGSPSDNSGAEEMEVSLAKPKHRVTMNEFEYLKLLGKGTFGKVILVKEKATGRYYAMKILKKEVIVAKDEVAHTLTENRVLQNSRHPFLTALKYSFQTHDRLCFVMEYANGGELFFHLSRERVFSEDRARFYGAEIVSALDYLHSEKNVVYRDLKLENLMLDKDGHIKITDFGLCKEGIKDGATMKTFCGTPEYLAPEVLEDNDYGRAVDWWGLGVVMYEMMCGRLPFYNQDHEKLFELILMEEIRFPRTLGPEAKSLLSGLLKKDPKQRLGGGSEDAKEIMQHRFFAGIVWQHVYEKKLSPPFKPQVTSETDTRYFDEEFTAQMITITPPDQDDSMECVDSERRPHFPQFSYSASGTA
T2 sequence (P31749 whole entry, the tested form may be a part): as the sequence (P31749 whole entry E17K, the tested form may be a part) above, with K17E counted along it

SMILES	IC50 (AKT1 E17K)	IC50 ([1]; Homo sapiens, LAPC4, 72 h)	IC50 (AKT1 WT)	IC50 (AKT2)	IC50 ([1]; 72 h)
C=CC(=O)Nc1cccc(C(=O)N[C@H]2CCc3cc(-n4c(-c5cccnc5N)nc5ccc(-n6cccn6)nc54)ccc32)c1 [Example 2, (S)-3-acrylamido-N-(5-(2-(2-aminopyridin-3-yl)-5-(1H-pyrazol-1-yl)-3H-imidazo[4,5-b]pyridin-3-yl)-2,3-dihydro-1H-inden-1-yl)benzamide]	22.7 nM	189 nM	18.7 nM	117 nM	–
C=CC(=O)N1CCN(NC2CCc3cc(-n4c(-c5cccnc5N)nc5ccc(-n6ccc(F)n6)nc54)ccc32)CC1 (single isomer, unassigned) [Example 200, 1-(4-{[(1*)-5-[2-(2-aminopyridin-3-yl)-5-(3-fluoropyrazol-1-yl)imidazo[4,5-b]pyridin-3-yl]-2,3-dihydro-1H-inden-1-yl]amino}piperazin-1-yl)prop-2-en-1-one]	15.9 nM	–	281 nM	80.1 nM	317 nM
C=CC(=O)N1CCC(N[C@H]2CCc3cc(-n4c(-c5cccnc5N)nc5ccc(-n6ccc(C7CCCC7)n6)nc54)ccc32)CC1 [Example 306, 1-(4-{[(1S)-5-[2-(2-aminopyridin-3-yl)-5-(3-cyclopentylpyrazol-1-yl)imidazo[4,5-b]pyridin-3-yl]-2,3-dihydro-1H-inden-1-yl]amino}piperidin-1-yl)prop-2-en-1-one]	15.7 nM	203 nM	186 nM	72.3 nM	–
C=CC(=O)Nc1cccc(C)c1C(=O)N[C@H]1CCc2cc(-n3c(-c4cccnc4N)nc4ccc(-n5cccn5)nc43)ccc21 [Example 15, (S)-2-acrylamido-N-(5-(2-(2-aminopyridin-3-yl)-5-(1H-pyrazol-1-yl)-3H-imidazo[4,5-b]pyridin-3-yl)-2,3-dihydro-1H-inden-1-yl)-6-methylbenzamide]	78.7 nM	366 nM	34.3 nM	377 nM	–
C=CC(=O)N1CCC(N[C@H]2CCc3cc(-n4c(-c5cccnc5N)nc5ccc(-n6cccn6)nc54)ccc32)C(O)C1 (single isomer, unassigned) [Example 139, 1-[(3*,4*)-4-{[(1S)-5-[2-(2-aminopyridin-3-yl)-5-(pyrazol-1-yl)imidazo[4,5-b]pyridin-3-yl]-2,3-dihydro-1H-inden-1-yl]amino}-3-hydroxypiperidin-1-yl]prop-2-en-1-one]	29.7 nM	–	13.5 nM	114 nM	41.9 nM
C=CC(=O)N1CCC(CN[C@H]2CCc3cc(-n4c(-c5cccnc5N)nc5ccc(-n6cccn6)nc54)ccc32)(OC)CC1 [Example 183, 1-[4-({[(1S)-5-[2-(2-aminopyridin-3-yl)-5-(pyrazol-1-yl)imidazo[4,5-b]pyridin-3-yl]-2,3-dihydro-1H-inden-1-yl]amino}methyl)-4-methoxypiperidin-1-yl]prop-2-en-1-one]	99.4 nM	1600 nM	1260 nM	633 nM	–
C=CC(=O)N1CCOCC(N[C@H]2CCc3cc(-n4c(-c5cccnc5N)nc5ccc(-n6cccn6)nc54)ccc32)C1 (single isomer, unassigned) [Example 53, 1-((*)-6-(((S)-5-(2-(2-aminopyridin-3-yl)-5-(1H-pyrazol-1-yl)-3H-imidazo[4,5-b]pyridin-3-yl)-2,3-dihydro-1H-inden-1-yl)amino)-1,4-oxazepan-4-yl)prop-2-en-1-one]	> 1000 nM	–	407 nM	3940 nM	2850 nM
C=C(F)C(=O)Nc1cnn(C)c1C(=O)N[C@H]1CCc2cc(-n3c(-c4cccnc4N)nc4ccc(-n5cccn5)nc43)ccc21 [Example 35, (S)-N-(5-(2-(2-aminopyridin-3-yl)-5-(1H-pyrazol-1-yl)-3H-imidazo[4,5-b]pyridin-3-yl)-2,3-dihydro-1H-inden-1-yl)-4-(2-fluoroacrylamido)-1-methyl-1H-pyrazole-5-carboxamide]	> 1000 nM	5660 nM	243 nM	2940 nM	–
C=CC(=O)N1CCC(N[C@H]2CCc3cc(-n4c(-c5cccnc5N)nc5ccc(-n6cccn6)nc54)ccc32)C[C@@H]1C (single isomer, unassigned) [Example 65, 1-((2S,4*)-4-(((S)-5-(2-(2-aminopyridin-3-yl)-5-(1H-pyrazol-1-yl)-3H-imidazo[4,5-b]pyridin-3-yl)-2,3-dihydro-1H-inden-1-yl)amino)-2-methylpiperidin-1-yl)prop-2-en-1-one]	58.3 nM	–	29.6 nM	397 nM	203 nM
C=CC(=O)N1CCC(N[C@H]2CCc3cc(-n4c(-c5ccccc5)nc5ccc(C6CC6)nc54)ccc32)CC1 [Example 246, 1-(4-{[(1S)-5-{5-cyclopropyl-2-phenylimidazo[4,5-b]pyridin-3-yl}-2,3-dihydro-1H-inden-1-yl]amino}piperidin-1-yl)prop-2-en-1-one]	65.6 nM	1600 nM	2510 nM	711 nM	–
C=CC(=O)N1CCC(N[C@H]2CCc3cc(-n4c(-c5cccnc5)nc5ccc(-n6cccn6)nc54)ccc32)CC1 [Example 153, (S)-1-(4-((5-(5-(1H-pyrazol-1-yl)-2-(pyridin-3-yl)-3H-imidazo[4,5-b]pyridin-3-yl)-2,3-dihydro-1H-inden-1-yl)amino)piperidin-1-yl)prop-2-en-1-one]	168 nM	362 nM	26.9 nM	1080 nM	–
C=CC(=O)N1CCC[C@H]1C(=O)N[C@H]1CCc2cc(-n3c(-c4cccnc4N)nc4ccc(-n5cccn5)nc43)ccc21 [Example 26, (S)-1-acryloyl-N—((S)-5-(2-(2-aminopyridin-3-yl)-5-(1H-pyrazol-1-yl)-3H-imidazo[4,5-b]pyridin-3-yl)-2,3-dihydro-1H-inden-1-yl)pyrrolidine-2-carboxamide]	> 1000 nM	2050 nM	> 1000 nM	> 10000 nM	–
C=CC(=O)N1CCC(N[C@@H]2c3ccc(-n4c(-c5cccnc5N)nc5ccc(-n6ccc(C7CC7)n6)nc54)cc3CC2F)CC1 (single isomer, unassigned) [Example 298, 1-(4-(((1R,2*)-5-(2-(2-aminopyridin-3-yl)-5-(3-cyclopropyl-1H-pyrazol-1-yl)-3H-imidazo[4,5-b]pyridin-3-yl)-2-fluoro-2,3-dihydro-1H-inden-1-yl)amino)piperidin-1-yl)prop-2-en-1-one]	14.2 nM	–	294 nM	57.3 nM	314 nM
C=CC(=O)N1CCC(N[C@H]2CCc3cc(-n4c(-c5cccnc5N)nc5ccc(-c6nc(C)co6)nc54)ccc32)CC1 [Example 253, 1-(4-{[(1S)-5-[2-(2-aminopyridin-3-yl)-5-(4-methyl-1,3-oxazol-2-yl)imidazo[4,5-b]pyridin-3-yl]-2,3-dihydro-1H-inden-1-yl]amino}piperidin-1-yl)prop-2-en-1-one]	14.5 nM	127 nM	318 nM	58.8 nM	–
C=CC(=O)N1CCN(N(C)C2CCc3cc(-n4c(-c5cccnc5N)nc5ccc(-n6cccn6)nc54)ccc32)CC1 (single isomer, unassigned) [Example 180, 1-(4-{[(1*)-5-[2-(2-aminopyridin-3-yl)-5-(pyrazol-1-yl)imidazo[4,5-b]pyridin-3-yl]-2,3-dihydro-1H-inden-1-yl](methyl)amino}piperazin-1-yl)prop-2-en-1-one]	18.6 nM	–	244 nM	160 nM	625 nM
Nc1ncccc1-c1nc2ccc(-n3cccn3)nc2n1-c1ccc2c(c1)CC[C@@H]2NC(=O)c1ccccc1NC(=O)C1=CCCC1 [Example 37, (S)-N-(5-(2-(2-aminopyridin-3-yl)-5-(1H-pyrazol-1-yl)-3H-imidazo[4,5-b]pyridin-3-yl)-2,3-dihydro-1H-inden-1-yl)-2-(cyclopent-1-ene-1-carboxamido)benzamide]	246 nM	581 nM	93 nM	738 nM	–
C=CC(=O)N1CCC(N[C@H]2CCc3cc(-n4c(-c5cccnc5N)nc5ccc(C6CC6)nc54)ccc32)C(F)C1 (single isomer, unassigned) [Example 176, 1-((3*,4*)-4-(((S)-5-(2-(2-aminopyridin-3-yl)-5-cyclopropyl-3H-imidazo[4,5-b]pyridin-3-yl)-2,3-dihydro-1H-inden-1-yl)amino)-3-fluoropiperidin-1-yl)prop-2-en-1-one]	37.8 nM	433 nM	967 nM	484 nM	–
Nc1ncccc1-c1nc2ccc(-n3cccn3)nc2n1-c1ccc2c(c1)CC[C@@H]2NC1CCN(C(=O)[C@@H]2CO2)CC1 [Example 123, 3-{3-[(1S)-1-({1-[(2S)-oxirane-2-carbonyl]piperidin-4-yl}amino)-2,3-dihydro-1H-inden-5-yl]-5-(pyrazol-1-yl)imidazo[4,5-b]pyridin-2-yl}pyridin-2-amine]	42.4 nM	736 nM	30.9 nM	393 nM	–
C=CC(=O)N1CCC(c2cn([C@H]3CCc4cc(-n5c(-c6cccnc6N)nc6ccc(-n7cccn7)nc65)ccc43)nn2)CC1 [Example 169, 1-(4-{1-[(1S)-5-[2-(2-aminopyridin-3-yl)-5-(pyrazol-1-yl)imidazo[4,5-b]pyridin-3-yl]-2,3-dihydro-1H-inden-1-yl]-1,2,3-triazol-4-yl}piperidin-1-yl)prop-2-en-1-one]	53.7 nM	565 nM	593 nM	115 nM	–
